Here are results for six compounds from patent publication US9853225B2, “Chalcogen-containing organic compound and a use thereof” (JNC CORPORATION, priority 2013, dated 2017).

A short description of series [1]: Evaluation of thermal stability, TG/DTA. The settings on record: heating 5° C. per minute. It counts as physicochemical.
Series [2] can be described thus: Evaluation of chemical stability, UV-Vis spectra of film standing in atmospheric air. In kind it is physicochemical. The settings on record: vacuum-deposited film 100 nanometers, one week in atmospheric air. The source says:
A film having a thickness of 100 nanometers formed by performing vacuum deposition of the compound synthesized in Example 4 was allowed to stand for one week in atmospheric air. The results obtained by measuring UV-Vis spectra (device used: Jasco V-570 Spectrometer, made by JASCO Corporation) over time during the period are shown in FIG. 3. […] According to the above, the compound of the present invention is clearly found to be chemically stable too.

Series [3] can be described thus: Evaluation of thermal stability, DSC. In kind it is physicochemical. The settings on record: heating 5° C. per minute.

Molecules are shown by their SMILES. Where only a bound is given, the exact number is not on record here.

Consider `CCCCCCCCCCc1ccc2cc3oc4cc5c(cc4c3cc2c1)oc1cc2ccc(CCCCCCCCCC)cc2cc15` [Example 1, 2,10-didecyldinaphtho[2,3-d:2′,3′-d′]benzo[1,2-b:4,5-b′]difuran], for which the melting point lay in the range of 316 to 317 °C.
The same measure, in the same setting: in the case of `CCCCCCCCCCc1ccc2cc3sc4cc5c(cc4c3cc2c1)sc1cc2ccc(CCCCCCCCCC)cc2cc15` [Example 2, 2,10-didecyldinaphtho[2,3-d:2′,3′-d′]benzo[1,2-b:4,5-b′]dithiophene] it was 285 to 286 °C; in that of `CCCCCCCCCCc1ccc2cc3c(cc2c1)oc1cc2c(cc13)oc1cc3cc(CCCCCCCCCC)ccc3cc12` [Example 3, 3,11-didecyldinaphtho[2,3-d:2′,3′-d′]benzo[1,2-b:4,5-b′]difuran], at least 350 °C.
`CCCCCCCCCCc1ccc2cc3c(cc2c1)sc1cc2c(cc13)sc1cc3cc(CCCCCCCCCC)ccc3cc12` [Example 4, 3,11-didecyldinaphtho[2,3-d:2′,3′-d′]benzo[1,2-b:4,5-b′]dithiophene] came in with a melting point of 263 to 264 °C. For the same compound, the “5% weight reduction temperature” value in series [1] came out at 426 °C. Also, the “change of UV-Vis spectrum of film” value in series [2] is “no change of the spectrum was observed”.
`CCCCCCc1ccc2cc3c(cc2c1)sc1cc2c(cc13)sc1cc3cc(CCCCCC)ccc3cc12` [Example 5, 3,11-dihexyldinaphtho[2,3-d:2′,3′-d′]benzo[1,2-b:4,5-b′]dithiophene] returned a melting point of over 300 °C.
`CCCCCCCCCCc1ccc2cc3c(cc2c1)sc1cc2cc4c(cc2cc13)sc1cc2cc(CCCCCCCCCC)ccc2cc14` [Example 7]: the melting point is at least 300 °C. In series [1], the “5% weight reduction temperature” value came to 450 °C. Besides, the “change of UV-Vis spectrum of film” value in series [2] was “no change of the spectrum was observed”. The phase transition points entry in series [3] was “no phase transition point was observed”.
